From patent US6207648A, “Methods of using cytochrome P450 reductase for the enhancement of P450-based anti-cancer gene therapy” (priority 1998, dated 2001)

Key:
[1] = test system: 9L/pBabe, 9L/2B6, 9L/hRED and 9L/2B6/hRED gliosarcoma cells; test: Cytotoxicity assay of 9L cells transduced with human RED and/or P450 2B6, normoxic or hypoxic (Example 3)
Protocol: Cells were seeded at 4000 cells/well in 48-well plates and treated with increasing concentrations of CPA for 4 days. Cell growth in comparison to drug-free controls was determined by crystal violet staining and is presented as mean±SD for n=3 replicates.
FIG. 21 is a graph depicting the cytotoxic effects of the bioreductive drug TPZ toward 9L/pBabe control cells and 9L cells transduced with retroviruses encoding human RED and/or P450 2B6 under normoxic culture conditions. Cells were seeded at 4000 cells/well in 48-well plates and treated with increasing concentrations of TPZ for 4 days. Cell growth in comparison to drug-free controls was determined by crystal violet staining and is presented as mean±SD for n=3 replicates.
FIG. 22 is a graph depicting the cytotoxicity of increasing concentrations of TPZ under hypoxic conditions (1% O2) toward 9L tumor cells transduced with retroviruses encoding P450 2B6 and/or human RED. 9L/pBabe cells served as controls. Cells were seeded at 4000 cells/well in 48-well plates and treated with increasing concentrations of TPZ for 4 days. Cell growth in comparison to drug-free controls was determined by crystal violet staining and is presented as mean±SD for n=3 replicates.
FIGS. 24A, 24B and 24C are graphs depicting the cytotoxic effects of TPZ (5 or 10 μM, as indicated) in combination with increasing concentrations of CPA under normoxic culture conditions (19.6% O2, 5% CO2). The data shown were obtained using 9L/2B6/hRED cells (FIG. 24A), 9L/hRED cells (FIG. 24B) and 9L/pBabe (control) cells (FIG. 24C). Data were compared to the cytotoxicity of increasing concentrations of CPA alone (i. e., in the absence of TPZ) measured using the same pools of tumor cells. Cells were seeded at 4000 cells/well in 48-well plates and then treated with the indicated drug concentrations for 4 days. Cell growth in comparison to drug-free controls (i.e., in the absence of CPA and TPZ) was determined by crystal violet staining and is presented as mean±SD for n=3 replicates.
FIGS. 25A, 25B and 25C are graphs depicting the cytotoxic effects of TPZ (0.5 or 1.5 μM, as indicated) in combination with increasing concentrations of CPA under hypoxic culture conditions (1% O2, 5% CO2). The data shown were obtained using 9L/2B6/hRED cells (FIG. 25A), 9L/hRED cells (FIG. 25B) and 9L/pBabe (control) cells (FIG. 25C). Data were compared to the cytotoxicity of increasing concentrations of CPA alone (i.e., in the absence of TPZ) measured using the same pools of tumor cells. Cells were seeded at 4000 cells/well in 48-well plates and then treated with the indicated drug concentrations for 4 days. Cell growth in comparison to drug-free controls (i.e., in the absence of CPA and TPZ) was determined by crystal violet staining and is presented as mean±SD for n=3 replicates.
Cytotoxicity assays: To evaluate the chemosensitivity of the P450- and P450/RED-expressing 9L tumor cells, cells were plated in triplicate at 4000 cells/well of a 48-well plate 18-24 hours prior to drug treatment. Cells were then treated with drugs (0 to 1 mM CPA or 0 to 50 μM TPZ, as indicated in each experiment) and placed in a tissue culture incubator maintained under hypoxic conditions (1% O2, 5% CO2, 94% N2) or under normoxic conditions (19.6% O2, 5% CO2, 75.4% N2) for a period of 4 days. 9L/pBabe cells, which were transduced with the empty retroviral plasmid pBabe-puro (see, Example 2), served as controls. Cells remaining after this time were quantitated using a crystal violet/alcohol-extraction assay, as described under Example 2. Data are presented as cell number relative to drug-free controls, mean±SD values for triplicate samples, unless indicated otherwise.

[2] = test system: human P450 genes expressed in 9L cells; test: Semicarbazide trapping/fluorescence assay for 4-hydroxy metabolites in 9L/P450 cells; format: in vitro ADME; details: 2 mM, 24 h
Protocol: Each of the indicated 9L cell lines was seeded on a 48-well plate in duplicate at 2×10^4 cells/well. […] Background fluorescence observed in 9L/Babe cells was subtracted from each sample.
Semicarbazide trapping/fluorescence assay for 4-hydroxy metabolites: 9L/P450 cells were seeded on a 48 well plate in duplicate at 2×10^4 cells/ well. […] Culture media, 400 μl, was removed and then treated with 160 μl of ice cold 5.5% (w/v) ZnSO4, 160 μl ice cold saturated Ba(OH)2, and 80 μl ice cold 0.01 M HCl. The mixture was vortexed and then centrifuged at 16,000 g for 15 minutes. 300 μl of the supernatant was transferred under dim light to a clean tube containing 540 μl of water and 160 μl of freshly prepared fluorescent reagent (60 mg 3-aminophenol and 60 mg hydroxylamine-HCl per 10 ml of 1 M HCl). The tubes were vortexed and heated at 90° C. for 20 minutes. Fluorescent readings were obtained at 350 nm (excitation), and 515 nm (emission) using 800 μl of each sample. Fluorescent values were converted to nmol 4-hydroxy metabolite/ml of original culture media based on standard curves generated using 4-hydroperoxy-CPA and then normalized to units of nmol 4-hydroxy metabolite formed per 24 hours per 10^6 cells.

[3] = test system: 9L/pBabe, 9L/2B6/reductase and 9L/2C18-Met/reductase tumors in scid mice; test: Tumor growth delay assay in scid mice; format: in vivo, mouse
Excerpt: FIGS. 19A-19D are graphs depicting the results of a tumor growth delay assay in severe combined immunodeficiency (scid) mice bearing 9L/pBabe, 9L/2B6/reductase, and 9L/2C18-Met/reductase solid tumors. Shown are the effects of CPA treatment on growth of 9L/pBabe tumors growing on the left flank of scid mice that also bear either a 9L/2B6/reductase tumor (FIG. 19A) or a 9L/2C18-Met/reductase tumor ((FIG. 19C)) on the right flank. Also shown are the effects of CPA on growth of 9L/2B6/reductase (FIG. 19B) or 9L/2C18-Met/reductasetumors ((FIG. 19D)) in these same mice. Tumor areas were measured twice a week with Vernier calipers. The arrows above the x-axis in each panel indicate the days on which CPA was given by intraperitoneal (i.p.) injection at 150 mg/kg, as described in the "Materials and Methods" section of Example 2. Data shown is mean tumor area (mm^2)±SEM for n=4 tumors per treatment group. Mice not treated with CPA died earlier than the CPA-treated mice, as indicated by the earlier decrease in number of remaining mice from n =4 (initial number of mice/group) to n=3, 2, or 1. Open circles indicate CPA-treated mice; closed circles indicate saline controls.
Tumor Growth Delay Assay: Six week old male ICR/Fox Chase/outbred immunodeficient scid mice (Paine-Murrieta, G. D., et al., Cancer Chemother Pharmacol. 40:209-214 (1997)) (Taconic Farms, Germantown, N.Y.) weighing 26-31g were given subcutaneous tumor cell injections to form solid tumors. Tumor cells were grown in culture to approximately 75% confluency, harvested by trypsin digestion, washed in PBS, resuspended in fetal bovine serum-free DMEM at a concentration of 8×10^6 cells/ml and kept on ice. Mice were shaved on both hind flanks, and then were injected subcutaneously on the left flank with 4×10^6 9L/pBabe tumor cells, and on the right flank with 4×10^6 of either 9L/2B6/reductase or 9L/2C18-Met/reductase tumor cells (8 mice/group). Tumor cell injections were in a volume of 0.5 ml of serum-free DMEM using a 1/2 inch 27 g needle and 1 ml syringe. Tumor growth was monitored twice a week using Vernier calipers (Manostat Corp., Switzerland) to measure tumor area. On days 26 and 27 after tumor cell inoculation, 4 animals from each group (four 9L/pBabe:9L/2B6/reductase mice and four 9L/pBabe:9L/2C18-Met/reductase mice) received daily intraperitoneal injections of CPA at 150 mg/kg dissolved in 0.3 ml of 0.9% NaCl. The remaining animals received saline injections. Average tumor areas ranged from 80-145 mm^2 at the time of CPA injection. Mice were given a second course of CPA treatment (150 mg/kg×2 daily injections) beginning 24-29 days after the first CPA injection, as indicated in each experiment.

[4] = test system: parental 9L cells; test: Limited dilution assay of conditioned media, bystander killing of parental 9L cells; format: cell-based, rat; details: PR11, PR7 vs P3, P17; 2 mM CPA 48 h
Protocol: FIG. 5 is a graph depicting the effects of culture media from P450 and RED-transduced tumor cells incubated with CPA, on the survival of wild-type tumor cells. […] Parental 9L cells seeded in 30 mm plates (10^4 cells/well) in duplicate were cultured with 5-50% of condition media collected from each of the indicated cell lines (1.5×10^6) incubated with 2 mM CPA for 48 hours as described below in the "Materials Methods" section of Example 1. Five days after treatment, the number of viable parental 9L cells was determined using a hemacytometer based on trypan blue exclusion (mean for duplicate values).
Limited dilution assay to evaluate bystander killing effect: 9L cells were seeded in 6-well plates at 1.5×10^6 cells/well for 12 hours, and treated with 2 mM CPA for 48 hours. The conditioned media from each well was collected, diluted 5-50% into fresh media as indicated for each experiment, and added into wells of a second set of 6-well plates pre-seeded with parental 9L cells (10^4 cells/well). Cultures were maintained for 5-7 days and colonies were scored as described for the clonogenic assay.

[5] = test system: 9L gliosarcoma cells (parental, CYP2B1+, CYP2B1+ RED+++); test: In vitro colony formation cytotoxicity assay (Example 1); format: cell-based, rat
Excerpt: FIGS. 2A and 2C depict the results of a colony formation cytotoxicity assay.
FIG. 3A depicts results from a colony formation cytotoxicity assay. […] The survival fraction is expressed as the number of colonies in each treatment group compared to the untreated control.
Corresponding controls received no drug treatment.

[6] = test system: 9L gliosarcoma cells (parental, CYP2B1+, CYP2B1+ RED+++); test: In vitro growth inhibition assay, XTT (Example 1); details: lines PR11, PR7 vs P3, P17; growth inhibition assay
Protocol: Cells (1000/well) seeded in 96-well plates were treated with the indicated concentrations of CPA for 4 days. Corresponding controls received no drug treatment. Cell survival was determined by an XTT calorimetric assay. Data (mean for triplicate samples) were expressed as growth ratio (%), i. e., cell number (XTT activity) in drug treated plates as a percentage of the corresponding drug-free controls.
Cells (500/well) seeded in 96-well plates were treated with 1 mM cyclophosphamide in the absence or presence of the RED inhibitors AADP (0.5 mM) or DPI (5 μM). Corresponding controls received no drug treatment. Cell survival was determined by an XTT colorimetric assay. Data (mean for triplicate samples) are expressed as growth ratio (%), i.e., cell number (XTT activity) in drug treated plates as a percentage of the corresponding drug-free controls and are representative of 2-3 independent experiments. AADP and DPI were added to the cells 30 minutes prior to CPA treatment.
(B) Growth inhibition assay--Cells (1000/well) seeded in 96 well plates were treated with the indicated concentrations of CPA for 4-5 days. Corresponding controls received no drug treatment. Cell survival was determined by an XTT colorimetric assay, a cell proliferation assay that measures mitochondrial dehydrogenase activity of viable cells (Scudiero, D. A., et al., Cancer Res. 48:4827-4833 (1988)).

O=P1(N(CCCl)CCCl)NCCCO1 (stereo not shown) [CPA, cyclophosphamide]
effect of hypoxia on CPA cytotoxicity toward 9L/2B6/RED or 9L/2B6 cells ([1]; 1% O2): does not significantly alter the cytotoxicity
CPA cytotoxicity on retroviral transduction of hRED ([1]; 9L/2B6/hRED vs 9L/2B6, normoxic): large increase in CPA cytotoxicity
CPA cytotoxicity in 9L/hRED and 9L/pBabe cells ([1]; normoxic): No CPA cytotoxicity was observed
effect of RED transduction on drug activation in 9L parental cells [2]: did not stimulate drug activation
effect of RED transduction on cytotoxic metabolites accumulating in the culture medium ([2]; CYP2B6 and CYP2C18-Met cells): significant increase in cytotoxic metabolites
growth delay of 2B6 and P450 reductase-transduced tumors ([3]; 150 mg/kg i.p.): > 50 days
growth inhibition of 9L/2C18-Met/reductase tumors ([3]; 150 mg/kg i.p.): significant, albeit incomplete growth inhibition
growth delay for 9L/pBabe tumors ([3]; 2B6 experiment, first cycle 150 mg/kg i.p. x2, days 26 and 27): no growth delay
growth delay effect against 9L/pBabe control tumors ([3]; 2B6 experiment, second cycle): modest growth delay effect
growth delay of 9L/pBabe control tumors ([3]; 2C18-Met experiment): 5-6 days
growth delay in RED tumors ([3]; 9L/2B6/RED and 9L/2C18-Met/RED): 25 to 50 days
host toxicity ([3]; CPA-treated scid mice): no apparent increase in host toxicity
growth delay without P450 ([3]; control 9L tumors): 5 to 6 days
growth of 9L/2B6/reductase tumors ([3]; first cycle 150 mg/kg i.p. x2): fully blocked
duration of anti-tumor effect in 9L/2B6/reductase tumors ([3]; second cycle): ≥ 75 day after tumor inoculation
cytotoxicity of conditioned media of CYP2B1+ RED+++ vs CYP2B1+ cells incubated with CPA [4]: substantially more cytotoxic
sensitization of 9L cells to CPA by RED overexpression alone ([5]; line 9L-R (RED without CYP2B1)): did not sensitize 9L tumor cells
cytotoxic response of CYP2B1+ cells on RED overexpression ([5]; lines PR11, PR7 vs P3, P17, colony formation assay): significantly enhanced the cytotoxic response
cytotoxic response of CYP2B1+ cells on RED overexpression [6]: significantly enhanced the cytotoxic response
